Experimental data from publication PMC7179297, “Preclinical Antimalarial Combination Study of M5717, a Plasmodium falciparum Elongation Factor 2 Inhibitor, and Pyronaridine, a Hemozoin Formation Inhibitor” (Antimicrobial Agents and Chemotherapy, 2020).
Where “and” joins values, the source holds several entries; their conditions need not be identical. Equal values may be shown once. Read-outs that look alike come from different tables or passages of the source. Marks after values point to notes of the source that are not given here.

How the values were obtained:
[1] = tested on: P. falciparum Pf3D70087/N9; assay: Murine P. falciparum SCID model, efficacy and recrudescence; type: in vivo, Plasmodium falciparum; settings: for Parasitemia Day 3: day 3 = day of treatment
Experimental: Compound efficacy was assessed in the murine P. falciparum SCID model essentially as described by Jimenez-Díaz et al. ([20]). Briefly, alone or in combination, M5717 (succinate salt by Merck KGaA [MSC2576186-B4]) and pyronaridine (tetraphosphate salt, Sigma-Aldrich [P0049]) were formulated in 7% Tween80, 3% ethanol and administered to a cohort of age-matched female immunodeficient NOD-scid IL-2Rγ^null mice (Jackson Laboratory, Bar Harbor, ME). These mice had been previously engrafted with human erythrocytes (generously provided by the blood bank in Zürich, Switzerland). Prior to compound treatment, mice were intravenously infected with 2 × 10^7 P. falciparum Pf3D7^0087/N9 -infected erythrocytes (day 0) ([30]). On day 3 after infection, mice, in groups of 2 to 5, were randomly allocated to treatments that were administered with a single oral gavage at 10 ml/kg (Table 2 and Fig. 2). Parasitemia was measured by microscopy. Chimerism was monitored by flow cytometry using an anti-murine erythrocyte TER119 monoclonal antibody (Pharmingen, San Diego, CA) and SYTO-16 and then analyzed by flow cytometry in serial blood samples (2 μl) collected every 2 to 3 days until the completion of the experiment (Table 2, day 60 and Fig. 2, day 80). Parasite recrudescence was detected by microscopy. Once parasitemia exceeded 0.5%, then 100 to 500 μl of blood was collected and stored at –80°C for subsequent sequence analysis. Animals received a second treatment with the same dose and if applicable the same combination of compounds as previously administered in that dose group (Fig. 2). Efficacy was again monitored by microscopy. If recrudescence occurred again then new blood samples were stored at –80°C.
Time-to-recrudescence data were analyzed using the Kaplan-Meier method. Log-rank test was performed for two-group comparisons. Kaplan-Meier curves and log-rank test P values, as well as median estimates for time to recrudescence, are presented (SAS, Version 9.4. Cary, NC: SAS Institute Inc.; 2014).

[2] = Pharmacokinetic analysis in blood of mice from the efficacy study; type: in vivo; settings: for AUC(0-inf) / half-life: NOD-scid IL-2Rγnull, mouse, whole blood, po; for AUC(0-inf): mean ± SD; for half-life / pharmacokinetics in combination versus single-agent treatment / half-life (t1/2): mice; for half-life / half-life (t1/2): administered alone, single oral dose; for half-life: read-out: half-life (t1/2) (converted); for pharmacokinetics in combination versus single-agent treatment: Cmax, AUC0-inf and t1/2, entries 8 to 11
Experimental: The test compounds’ concentrations in blood were assessed in order to determine pharmacokinetic parameters in mice from the efficacy study. Peripheral blood samples (20 μl) were sampled at different time points (1, 2, 4, 6, 24, 48, 72, 96, 168, and 216 h post treatment), mixed with 20 μl of H2O Milli Q and immediately frozen on dry ice. Samples were stored at –80°C until analysis. Blood from control mice was used for bioanalysis calibration and QC purposes. For liquid chromatography with tandem mass spectrometry (LC-MS/MS) analysis, the frozen samples were thawed and treated with two volumes equivalent of acetonitrile containing the internal standard. After centrifugation, one volume equivalent of supernatant was diluted with one volume equivalent of water containing heptafluorobutyric acid (HFBA). The extracts were analyzed by LC-MS/MS (quantification by HESI ionization in positive ion mode) performed at Swiss BioQuant AG (Switzerland). A noncompartmental analysis was performed to determine pharmacokinetic parameters using the Phoenix WinNonlin program (version 6.3).
56 Pharmacokinetic parameters
57 The pharmacokinetic analysis was performed non-compartmentally using the extravascular model. For the analysis,
58 concentrations below the LLOQ were set to 0. The following pharmacokinetic parameters of the analytes were
59 derived from the concentration-time profiles.
C0 The pre-dose concentration assumed to be 0 on the day of oral dosing.
tmax Time where the concentration in matrix is the highest.
Cmax/dose Cmax normalized to the dose of 1 mg/kg.
AUC0-t Area under the matrix concentration -time curve from 0 h to time t calculated using
the linear trapezoidal rule , using C0 as defined above.
AUC0-∞ Area under the matrix concentration -time curve from 0 h to infinity calculated using
AUC0-∞/dose AUC0-∞ normalized to a dose of 1 mg/kg.
61 Software for calculations: Phoenix WinNonlin program (version 6.3).
62 All concentration values and pharmacokinetic parameters were rounded to 3 significant digits.
63 The numbers listed for %bias and %CV were rounded to 1 decimal place.

[3] = pyronaridine 6 mg/kg single oral dose (entry 5)
[4] = pyronaridine 12 mg/kg single oral dose (entry 6)
[5] = pyronaridine 12 mg/kg single oral dose (entry 6), LLQ <0.01%
[6] = pyronaridine 36 mg/kg single oral dose (entry 7)
[7] = pyronaridine 36 mg/kg single oral dose (entry 7), LLQ <0.01%
[8] = M5717 3 mg/kg single oral dose (entry 1)
[9] = M5717 6 mg/kg single oral dose (entry 2)
[10] = M5717 12 mg/kg single oral dose (entry 3)
[11] = M5717 30 mg/kg single oral dose (entry 4)

COc1ccc2nc3cc(Cl)ccc3c(Nc3cc(CN4CCCC4)c(O)c(CN4CCCC4)c3)c2n1 [pyronaridine]
Parasitemia Day 4 [1, 3]: 0.09%
Parasitemia Day 5 [1, 3]: 0.01%
Parasitemia Day 6 ([1]; pyronaridine 6 mg/kg single oral dose (entry 5), LLQ <0.01%): 0.00^d %
Parasitemia Day 3 [1, 3]: 0.89%
Parasitemia Day 4 [1, 4]: 0.13%
Mean DoR (day of recrudescence) ([1]; pyronaridine 12 mg/kg single oral dose (entry 6), uncorrected): 35 days postinfection
Parasitemia Day 5 [1, 5]: 0.00^d %
Parasitemia Day 6 [1, 5]: 0.00^d %
Parasitemia Day 3 [1, 4]: 1.51%
Parasitemia Day 4 [1, 6]: 0.12%
Parasitemia Day 5 [1, 7]: 0.00^d %
Parasitemia Day 6 [1, 7]: 0.00^d %
Parasitemia Day 3 [1, 6]: 1.61%
Mean DoR (day of recrudescence) ([1]; pyronaridine 36 mg/kg single oral dose (entry 7), experiment ended at day 60 with parasitemia <0.01%): ≥60^e days postinfection
AUC(0-inf) ([2]; 6 mg/kg, pyronaridine 6 mg/kg single oral dose (entry 5), read-out: Pyronaridine exposure AUC0-inf): 6560 ng·h/mL
AUC(0-inf) ([2]; 12 mg/kg, M5717 12 mg/kg + pyronaridine 12 mg/kg single oral dose (entry 10), read-out: Pyronaridine exposure AUC0-inf): 12100 ng·h/mL
AUC(0-inf) ([2]; 12 mg/kg, pyronaridine 12 mg/kg single oral dose (entry 6), read-out: Pyronaridine exposure AUC0-inf): 14500 ng·h/mL
AUC(0-inf) ([2]; 36 mg/kg, pyronaridine 36 mg/kg single oral dose (entry 7), read-out: Pyronaridine exposure AUC0-inf): 55600 ng·h/mL
AUC(0-inf) ([2]; M5717 3 mg/kg + pyronaridine 6 mg/kg single oral dose (entry 8), read-out: Pyronaridine exposure AUC0-inf): 8500 ng·h/mL
AUC(0-inf) ([2]; M5717 6 mg/kg + pyronaridine 36 mg/kg single oral dose (entry 11), read-out: Pyronaridine exposure AUC0-inf): 58200 ng·h/mL
AUC(0-inf) ([2]; M5717 12 mg/kg + pyronaridine 6 mg/kg single oral dose (entry 9), read-out: Pyronaridine exposure AUC0-inf): 8490 ng·h/mL
half-life [2]: ~74 h
pharmacokinetics in combination versus single-agent treatment [2]: No change
half-life (t1/2) [2]: 74 h

O=C(NCCN1CCCC1)c1cc(-c2ccc(CN3CCOCC3)cc2)nc2ccc(F)cc12 [M5717]
Parasitemia Day 4 [1, 8]: 0.65%
Parasitemia Day 5 [1, 8]: 0.49%
Parasitemia Day 6 [1, 8]: 0.19%
Mean DoR (day of recrudescence) ([1]; M5717 3 mg/kg single oral dose (entry 1), uncorrected): 6 days postinfection
Parasitemia Day 3 [1, 8]: 1.2%
Parasitemia Day 4 [1, 9]: 1.4%
Parasitemia Day 5 [1, 9]: 1.03%
Parasitemia Day 6 [1, 9]: 0.46%
Mean DoR (day of recrudescence) ([1]; M5717 6 mg/kg single oral dose (entry 2), uncorrected): 17 days postinfection
Parasitemia Day 3 [1, 9]: 1.26%
mice in which resistance evolved ([1]; M5717 12 mg/kg arm): 5/5
Parasitemia Day 4 [1, 10]: 0.58%
Parasitemia Day 5 [1, 10]: 0.53%
Parasitemia Day 6 [1, 10]: 0.11%
Mean DoR (day of recrudescence) ([1]; M5717 12 mg/kg single oral dose (entry 3), uncorrected): 24 days postinfection
Parasitemia Day 3 [1, 10]: 0.81%
median time to recrudescence ([1]; M5717 12 mg/kg single oral dose, all mice n = 5, Kaplan-Meier, 12 mg/kg): 19 days
day postinfection at which LLQ was reached ([1]; M5717 12 mg/kg single oral dose, n = 5 (Fig. 2A)): 8 days
median time to recrudescence ([1]; M5717 12 mg/kg, mice showing no response to retreatment (M1, M2, M3, n = 3)): 18 days
response to retreatment with the same dosing regimen ([1]; M5717 12 mg/kg, mice with early recrudescence (D17, D18, D19)): not susceptible
response to retreatment with the same dosing regimen ([1]; M5717 12 mg/kg, mice with later recrudescence (D23, D24)): responded partially
median time to recrudescence ([1]; M5717 12 mg/kg, mice with later recrudescence (M4 and M5, n = 2)): 23.5 days
Parasitemia Day 4 [1, 11]: 0.73%
Parasitemia Day 5 [1, 11]: 0.54%
Parasitemia Day 6 [1, 11]: 0.21%
Mean DoR (day of recrudescence) ([1]; M5717 30 mg/kg single oral dose (entry 4), uncorrected): 24 days postinfection
Parasitemia Day 3 [1, 11]: 0.89%
Parasitemia for the individual mice at blood draw ([1]; M5717 1x30 mg/kg single oral dose, recrudescent samples 1.1 and 1.2): 3.25% and 0.50%
Recrudescence day post infection ([1]; M5717 1x30 mg/kg single oral dose, samples 1.1 and 1.2): 24
breakpoint between both phases of biphasic clearance of parasitemia ([1]; M5717 alone at 3, 6, 12 and 30 mg/kg): around 48 h
AUC(0-inf) ([2]; 3 mg/kg, M5717 3 mg/kg single oral dose (entry 1), read-out: M5717 exposure AUC0-inf): 1570 ng·h/mL
AUC(0-inf) ([2]; 6 mg/kg, M5717 6 mg/kg single oral dose (entry 2), read-out: M5717 exposure AUC0-inf): 3390 ng·h/mL
AUC(0-inf) ([2]; 12 mg/kg, M5717 12 mg/kg + pyronaridine 12 mg/kg single oral dose (entry 10), read-out: M5717 exposure AUC0-inf): 6650 ng·h/mL
AUC(0-inf) ([2]; 12 mg/kg, M5717 12 mg/kg single oral dose (entry 3), read-out: M5717 exposure AUC0-inf): 6160 ng·h/mL
AUC(0-inf) ([2]; 30 mg/kg, M5717 30 mg/kg single oral dose (entry 4), read-out: M5717 exposure AUC0-inf): 16900 ng·h/mL
AUC(0-inf) ([2]; M5717 3 mg/kg + pyronaridine 6 mg/kg single oral dose (entry 8), read-out: M5717 exposure AUC0-inf): 1360 ng·h/mL
AUC(0-inf) ([2]; M5717 6 mg/kg + pyronaridine 36 mg/kg single oral dose (entry 11), read-out: M5717 exposure AUC0-inf): 2980 ng·h/mL
AUC(0-inf) ([2]; M5717 12 mg/kg + pyronaridine 6 mg/kg single oral dose (entry 9), read-out: M5717 exposure AUC0-inf): 6400 ng·h/mL
half-life [2]: ~37 h
pharmacokinetics in combination versus single-agent treatment [2]: unchanged
half-life (t1/2) [2]: 37 h
